Results: PMC3770646, “Isolation of an Orally Active Insecticidal Toxin from the Venom of an Australian Tarantula” (PLoS ONE, 2013)
Read-outs that look alike come from different tables or passages of the source. Where a SMILES comes first, the peptide text is derived from it. Bridges are numbered along the chain shown (N, C = ends).

Key:
H. armigera = details: ref [61], cited from earlier work
Excerpt: Table 2 Comparison of OAIP-1 with pyrethroid insecticides. | column: Oral LD50 (nmol/g)

Helicoverpa armigera = experiment: Assay of synergism of imidacloprid and sOAIP-1 in agar diet; assay type: in vivo; details: H. armigera fed 100 pmol of the single insecticide in agar diet, mean ±SEM of three replicates of 10
Procedure: (§1) For feeding assays, an agar-based insect diet was created based on literature information (Table S1). Instead of using a separate preparation as a vitamin supplement, the commercially available children's vitamin Pentavite (Bayer, Leverkusen, Germany) was added after the agar had cooled below 65°C. Mealworms were fed 100 µL of the agar diet, with or without 20 µL toxin (or water for untreated controls). For the choice test, the same size Petri dish was divided in half and 50 µL of either toxin-treated or untreated agar was pipetted onto each half and mortality was recorded after 48 h. Cotton bollworms (Helicoverpa armigera, Lepidoptera: Noctuidae) were fed 5 µL toxin (or water for untreated controls) in 20 µL of agar diet, and maintained in 12-well tissue culture dishes. For assays of synergism using 100 pmol imidacloprid (Sigma-Aldrich) and 100 pmol sOAIP-1, 20 µL of one toxin or 10 µL of each toxin was incorporated into the agar diet for H. armigera. After all the treated diet was consumed, untreated diet was supplied ad libitum.
In all experiments, the mortality of untreated insects was used to correct the data for mortality due to injection of toxin or incorporation in the diet. […]

[1] = tested on: mealworms (larval Tenebrio molitor); experiment: Injection of toxin into mealworms; assay type: in vivo; details: injection into metathoracic pleurite, corrected for control mortality, three replicates of 10
Procedure: Termites were fed a 20% α-cellulose matrix (Sigma-Aldrich, St. Louis, MO) mixed with water; the toxin was dissolved in water, and 20 µL was added to the cellulose matrix to a final concentration of 350 nmol/g, and then pipetted into Petri dishes. After the cellulose matrix had dried (to prevent termites from drowning in wet bait), nine worker termites and one soldier termite were added to each dish; each toxin dose was replicated three times. As a comparison, toxins were also injected into mealworms at a concentration of 350 nmol/g in three replicates of 10 insects.
Mealworms were purchased from Pisces Enterprises (Kenmore, QLD, Australia). Insects between 3rd and 4th instar (∼180 mg/individual) were used. For each mealworm, 2.6 µL of toxin diluted in ultrapure water was injected into the metathoracic pleurite. Injections were performed using a 29.5 gauge insulin syringe (B–D Ultra-Fine, Terumo Medical Corporation, Elkton, MD). Three replicates of 10 insects were used for each toxin concentration, and the same number of control insects were injected with ultrapure water and maintained under the same conditions.
Chicken feed was provided ad libitum for mealworm food. […] All insects were maintained at 24.5°C in the dark at ambient humidity in sterile Petri dishes. […]

[2] = tested on: mealworms (larval Tenebrio molitor); experiment: Feeding choice test, toxin-treated and untreated agar; assay type: in vivo
Procedure: as §1
In addition to toxicity assays, a choice test was conducted to determine whether sOAIP-1 is repellent. […] Conversely, if the toxin-treated agar was preferentially consumed, it might indicate that sOAIP-1 acts as an attractant.

[3] = In vitro stability in undiluted insect hemolymph; assay type: in vitro ADME, Helicoverpa armigera; details: undiluted H. armigera hemolymph, 30 µg peptide in 200 µL, ambient temperature (23°C), dark
Procedure: Fourth-instar H. armigera larvae were decapitated and the gut was removed using forceps. The carcasses were spun in a benchtop centrifuge (14,000 g for 10 min) to separate the hemolymph from exoskeleton. For each time point, 200 µL of undiluted hemolymph was mixed with 30 µg of sOAIP-1. The hemolymph/sOAIP-1 solution was maintained in the dark at room temperature, and immediately before RP-HPLC analysis the hemolymph/sOAIP-1 solution was again spun in a benchtop centrifuge (14,000 g for 10 min). After centrifugation, 30 µg of a control peptide, ω-HXTX-Hv1a, was added to aid quantification and the sample was filtered using a […] filter. The toxins were separated by RP-HPLC using a linear acetonitrile gradient (5–40% over 40 min), and the identity of each toxin was confirmed using mass spectrometry. The percentage of intact sOAIP-1 present at each time point was determined by comparing the area of the sOAIP-1 peak to that at zero time, both measured relative to the area of the ω-HXTX-Hv1a peak.

[4] = tested on: mealworms (larval Tenebrio molitor); experiment: Feeding assay, toxin in agar diet fed to mealworms; assay type: in vivo; details: corrected for control mortality, three replicates of 10
Procedure: Chicken feed was provided ad libitum for mealworm food. A Whatman filter paper saturated with distilled water was used to maintain humidity in all mealworm experiments except feeding assays, which used the synthetic orally active insecticidal peptide 1 (sOAIP-1) in the agar diet described below. The agar diet allowed a homogenous mixture of toxin and diet to be prepared so preferential feeding on untreated diet would not be possible. All insects were maintained at 24.5°C in the dark at ambient humidity in sterile Petri dishes.
as §1, with “For assays of synergism using 100 pmol imidacloprid (Sigma-Aldrich) and 100 pmol sOAIP-1, 20 µL of one toxin or 10 µL of each toxin was incorporated into the agar diet for H. armigera. After all the treated diet was consumed, untreated diet was supplied ad libitum.” left out

[5] = pyrethroid-resistant strain BK99R9 (R)

| SMILES | Oral LD50 (H. armigera; [5]) [nmol/g] | Oral LD50 (H. armigera; susceptible strain BK77 (S)) [nmol/g] | mortality at 48 h (Helicoverpa armigera) [%] | further results |
| --- | --- | --- | --- | --- |
| CC1(C)[C@H](C(=O)O[C@H](C#N)c2cccc(Oc3ccccc3)c2)[C@@H]1C=C(Br)Br [Deltamethrin] | 0.46 | 0.35 | – | – |
| Cc1c(COC(=O)[C@@H]2[C@H](/C=C(\Cl)C(F)(F)F)C2(C)C)cccc1-c1ccccc1 (racemic) [Bifenthrin] | 20.6 | 1.1 | – | – |
| CCOc1ccc(C(C)(C)COCc2cccc(Oc3ccccc3)c2)cc1 [Etofenprox] | 55.9 | 0.31 | – | – |
| CC(C)C(C(=O)OC(C#N)c1cccc(Oc2ccccc2)c1)c1ccc(Cl)cc1 (centres unmarked) [Fenvalerate] | 41.9 | 7.8 | – | – |
| O=[N+]([O-])NC1=NCCN1Cc1ccc(Cl)nc1 [imidacloprid] | – | – | 31±3 | – |
| CC[C@H](C)[C@@H]1NC(=O)[C@@H]2CSSC[C@H](NC(=O)[C@@H](N)CC(=O)O)C(=O)NCC(=O)N[C@@H](Cc3c[nH]cn3)C(=O)N[C@@H](CC(C)C)C(=O)N[C@@H](Cc3c[nH]cn3)C(=O)N[C@@H](CC(=O)O)C(=O)N3CCC[C@H]3C(=O)N[C@H]3CSSC[C@H](NC(=O)[C@H](CCC(N)=O)NC(=O)[C@H](CC(C)C)NC(=O)CNC1=O)C(=O)N[C@@H](CCCNC(=N)N)C(=O)N[C@@H](Cc1ccc(O)cc1)C(=O)NCC(=O)N[C@@H](CCCCN)C(=O)N[C@H](C(=O)N[C@@H](CC(C)C)C(=O)N[C@H](C(=O)N[C@@H](CCCNC(=N)N)C(=O)O)C(C)C)CSSC[C@H](NC(=O)[C@H]([C@@H](C)O)NC(=O)[C@H](CCCNC(=N)N)NC(=O)[C@H](Cc1c[nH]cn1)NC(=O)CNC(=O)[C@@H]1CCCN1C(=O)[C@H](CCCNC(=N)N)NC(=O)[C@H](CC(=O)O)NC(=O)[C@H](CC(N)=O)NC(=O)[C@@H]1CCCN1C3=O)C(=O)N2 [sOAIP-1] (H-DCGHLHDPCPNDRPGHRTCCIGLQCRYGKCLVR-OH; disulfide 2-20, 9-25, 19-30; N-terminus and C-terminus assumed) | – | – | 4±3 | LD50, injected toxin [1]: 1.84 ± 0.8 nmol/g; mortality at 48 h in choice test ([2]; mealworms offered toxin-treated and untreated agar, 1 pmol toxin, three replicates of 10): no mortality; repellent or attractant effect ([2]; mealworms, choice test compared with non-choice test): neither a repellent that repels insects nor an attractant; remaining at 24 h ([3]; cerebrospinal or other body fluid, 24 h, RP-HPLC peak area relative to ω-HXTX-Hv1a, read-out: remained intact): ~40%; metabolised at 72 h ([3]; cerebrospinal or other body fluid, 72 h, RP-HPLC peak area relative to ω-HXTX-Hv1a, read-out: peptide degraded): 90%; remained intact ([3]; one-week incubation, RP-HPLC): none remained intact; LD50, oral administration [4]: 170.5 ± 0.2 nmol/g |
